The text below walks through data of patent US11076595B2, “1-(n,n-disubstituted carbamoyl) 4-(substituted sulfonyl)triazolin-5-one derivative, 4-(n,n-disubstituted carbamoyl) 1-(substituted sulfonyl)triazolin-5-one derivative, and herbicide containing said derivative as active ingredient” (HOKKO CHEMICAL INDUSTRY CO., LTD., priority 2017, dated 2021).

Common to all, as to assay type: in vivo
Experiment [1] has as its system Amaranthus viridis. Put plainly: Test Example 4: herbicidal effect test by foliage treatment in upland field. Particulars: upland field foliage treatment 7 days after sowing; 120 g/10a; evaluated 14 days after treatment. The method, then: (§1) This test was performed with two replications per one formulation concentration plot, and 14 days after the formulation treatments, the weed suppression rate (%) was determined according to the following equation (Math. 1). Weed suppression rate (%)=(1−an average dry weight (g) of plants in treated plots/an average dry weight (g) of plants in untreated plots)×100 [Math. 1]
(§2) A pot having a size of 36 cm^2 was filled with field soil (alluvial soil) and after uniformly mixing the soil of the surface layer of 1 cm with 20 grains of each weed seed of crabgrass, Echinochloa crus-galli, Chenopodium album and Amaranthus viridis, the surface layer was pressed lightly. Seven days after the sowing, an emulsifiable concentrate prepared according to Formulation Example 5 by using the compound shown in Table 8 below was diluted with water, and the water-diluted formulation was sprayed on the soil surface at a ratio of 100 liter per 10 are. The application rate of the active ingredient, by conversion, corresponded to 120 g per 10 are. Fourteen days after the formulation treatment, the herbicidal effect was evaluated by the same criteria as in Test Example 1.

Experiment [2] concerns Chenopodium album. Described as above. Conditions: upland field foliage treatment 7 days after sowing; 120 g/10a; evaluated 14 days after treatment. The method, then: as §1, §2
For experiment [3], the system named is Echinochloa crus-galli. The experiment is described as above. Conditions: upland field foliage treatment 7 days after sowing; 120 g/10a; evaluated 14 days after treatment. On the procedure:
as §1, §2

For experiment [4], the system named is crabgrass. The experiment is described as above. Particulars: upland field foliage treatment 7 days after sowing; 120 g/10a; evaluated 14 days after treatment. The method, then:
as §1, §2

The subject of experiment [5] is Lindernia pyxidaria. Kind of experiment: Test Example 2: herbicidal effect test by treatment during growing period in paddy field. Particulars: treatment 7 days after sowing, 120 g/10a, evaluated 14 days after treatment. A digest of the protocol: (§3)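 Read-out is weed suppression (%), 1 − mean dry weight treated/untreated ×100, taken 14 days after treatment with duplicate plots. Treatment: water-diluted emulsifiable concentrate added dropwise to flooded paddy-soil pots 7 days post-sowing at 120 g active ingredient per 10 are.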

Experiment [6] relates to Scirpus juncoides. The experiment is described as above. Conditions: treatment 7 days after sowing, 120 g/10a, evaluated 14 days after treatment. A digest of the protocol: as §3
Experiment [7] concerns Monochoria vaginalis. The experiment is described as above. Conditions: treatment 7 days after sowing, 120 g/10a, evaluated 14 days after treatment. The method, boiled down: as §3
Experiment [8] deals with Echinochloa crus-galli. Described as above. Particulars: treatment 7 days after sowing, 120 g/10a, evaluated 14 days after treatment. The method, boiled down:
as §3

The test system of experiment [9] is Lindernia pyxidaria. Kind of experiment: Test Example 1: herbicidal effect test by soil treatment in paddy field. Conditions: 120 g/10a, paddy soil treatment just after sowing, 14 days after treatment. The method, boiled down:
(§4)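 Flooded paddy-soil pots (1/10000 are, N:P:K 17:17:17 fertilizer, puddled) were sown with 30 seeds per species at 0–1 cm, water kept ~3 cm in a greenhouse. Emulsifiable concentrate diluted in water was dripped in right after sowing at 120 g a.i. per 10 are. Suppression (%) came from dry weight vs untreated at 14 days.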

In experiment [10] the test system is Scirpus juncoides. The experiment is described as above. Conditions: 120 g/10a, paddy soil treatment just after sowing, 14 days after treatment. A digest of the protocol:
as §4

Experiment [11] deals with Monochoria vaginalis. Described as above. Conditions: 120 g/10a, paddy soil treatment just after sowing, 14 days after treatment. The method, boiled down: as §4
Experiment [12] deals with Echinochloa crus-galli. The description is as above. Particulars: 120 g/10a, paddy soil treatment just after sowing, 14 days after treatment. The method, boiled down:
as §4

For experiment [13], the system named is Amaranthus viridis. Put plainly: Test Example 3: herbicidal effect test by soil treatment in upland field. Particulars: upland field soil treatment 1 day after sowing; 120 g/10a; evaluated 14 days after treatment. The method, then: as §1
as §2, with “One day” for “Seven days”, “7” for “8”

The test system of experiment [14] is Chenopodium album. The description is as above. Conditions: upland field soil treatment 1 day after sowing; 120 g/10a; evaluated 14 days after treatment. The method, then: as §1
as §2, with “One day” for “Seven days”, “7” for “8”

Experiment [15] relates to Echinochloa crus-galli. The description is as above. Conditions: upland field soil treatment 1 day after sowing; 120 g/10a; evaluated 14 days after treatment. The method, then:
as §1
as §2, with “One day” for “Seven days”, “7” for “8”

The test system of experiment [16] is crabgrass. The description is as above. Particulars: upland field soil treatment 1 day after sowing; 120 g/10a; evaluated 14 days after treatment. On the procedure: as §1
as §2, with “One day” for “Seven days”, “7” for “8”

With `CC(C)N(C(=O)n1ncn(S(=O)(=O)C2CCCCC2)c1=O)c1c(F)cccc1F` [Compound 1-308], the “herbicidal effect (weed suppression rate), Amaranthus viridis” value (from here on “herbicidal effect … Amaranthus viridis”) in experiment [1] turned out to be 60%; in experiment [13], 40%. The “herbicidal effect (weed suppression rate), Chenopodium album” value (“herbicidal effect … Chenopodium album” for short) in experiment [2] and in experiment [14] was 40% in each case. Moreover, the “herbicidal effect (weed suppression rate), Echinochloa crus-galli” value (“herbicidal effect … Echinochloa crus-galli” below) in experiment [3] and in [15] was 90% in each case. The “herbicidal effect (weed suppression rate), Crabgrass” value (“herbicidal effect … Crabgrass” below) in experiment [4] and in experiment [16] was 90% each time. In addition, the “weed suppression rate, Lindemia pyxidaria” value is 90% in experiment [5] and 100% in [9]. Also, the “weed suppression rate, Scirpus juncoides” value in experiment [6] and in experiment [10] was 100% in each case. Further, the “weed suppression rate, Monochoria vaginalis” value is on record as 100% in experiment [7] and 80% in [11]. The “weed suppression rate, Echinochloa crus-galli” value in [8] and in [12] was 100% in each case.
In the case of `CC(C)N(C(=O)n1ncn(S(=O)(=O)C2CCOCC2)c1=O)c1ccc(F)cc1F` [Compound 1-1150], the “herbicidal effect … Amaranthus viridis” value in experiment [1] was 90%; in experiment [13], 100%. Also, the “herbicidal effect … Chenopodium album” value in experiment [2] was 80%; in experiment [14], 100%. Also, the “herbicidal effect … Echinochloa crus-galli” value was determined as 80% in [3] and 100% in experiment [15]. Further, the results for the “herbicidal effect … Crabgrass” value in experiment [4] and in experiment [16] were 90% and 100%, respectively.
On to `CC(C)N(C(=O)n1ncn(S(=O)(=O)C2CC2)c1=O)c1ccc(F)cc1` [Compound 1-171], for which the “herbicidal effect … Amaranthus viridis” value in experiment [1] and in [13] was 90% in each case. For the same compound, the results for the “herbicidal effect … Chenopodium album” value in experiment [2] and in experiment [14] were 80% and 100%, respectively. For the same compound, the figures for the “herbicidal effect … Echinochloa crus-galli” value in [3] and in experiment [15] were 80% and 100%, respectively. Moreover, the results for the “herbicidal effect … Crabgrass” value in experiment [4] and in experiment [16] were 90% and 100%, respectively. Also, the “weed suppression rate, Lindemia pyxidaria” value in [5] was 90%; in experiment [9], 100%. Further, the “weed suppression rate, Scirpus juncoides” value in [6] is recorded as 90%; in [10], 100%. Moreover, the figures for the “weed suppression rate, Monochoria vaginalis” value in experiment [7] and in [11] were 90% and 100%, respectively. Moreover, the “weed suppression rate, Echinochloa crus-galli” value in experiment [8] and in [12] was 100% in each case.
`CC(C)N(C(=O)n1ncn(S(=O)(=O)C(C)C)c1=O)c1ccc(Cl)nc1Cl` [Compound 1-98]: the “herbicidal effect … Amaranthus viridis” value in [1] and in experiment [13] was 90% throughout. Moreover, the “herbicidal effect … Chenopodium album” value in experiment [2] and in experiment [14] was 80% each time. In addition, the “herbicidal effect … Echinochloa crus-galli” value in experiment [3] and in experiment [15] was 80% each time. Besides, the “herbicidal effect … Crabgrass” value in [4] and in experiment [16] was 90% in each case. The “weed suppression rate, Lindemia pyxidaria” value in experiment [5] is given as 80%; in experiment [9], 90%. The “weed suppression rate, Scirpus juncoides” value in [6] and in experiment [10] was 90% in each case. The “weed suppression rate, Monochoria vaginalis” value in experiment [7] and in experiment [11] was 90% throughout. Besides, the “weed suppression rate, Echinochloa crus-galli” value in [8] and in experiment [12] was 100% each time.
`CCN(C)S(=O)(=O)n1cnn(C(=O)N(c2ccc(F)cc2F)C(C)C)c1=O` [Compound 1-1139]: the results for the “weed suppression rate, Lindemia pyxidaria” value in [5] and in experiment [9] were 80% and 90%, respectively. Further, the “weed suppression rate, Scirpus juncoides” value in experiment [6] and in [10] was 90% in each case. In addition, the “weed suppression rate, Monochoria vaginalis” value stood at 80% in experiment [7] and 90% in [11]. Further, the figures for the “weed suppression rate, Echinochloa crus-galli” value in [8] and in [12] were 90% and 100%, respectively. In experiment [13], the “herbicidal effect … Amaranthus viridis” value was 90%. In [14], the “herbicidal effect … Chenopodium album” value is 80%. Besides, the “herbicidal effect … Echinochloa crus-galli” value in experiment [15] worked out at 80%. In experiment [16], the “herbicidal effect … Crabgrass” value stood at 90%.
Take `CC(C)CN(C)S(=O)(=O)n1cnn(C(=O)N(c2ccc(F)cc2F)C(C)C)c1=O` [Compound 1-1142]: the “weed suppression rate, Lindemia pyxidaria” value in experiment [5] and in experiment [9] was 80% throughout. Also, the “weed suppression rate, Scirpus juncoides” value in experiment [6] is on record as 90%; in experiment [10] it was 80%. Moreover, the “weed suppression rate, Monochoria vaginalis” value in experiment [7] and in [11] was 80% throughout. The “weed suppression rate, Echinochloa crus-galli” value in experiment [8] is listed as 90%; in experiment [12], 100%. Moreover, in experiment [13], the “herbicidal effect … Amaranthus viridis” value was 90%. Further, in experiment [14], the “herbicidal effect … Chenopodium album” value was 80%. Moreover, in experiment [15], the “herbicidal effect … Echinochloa crus-galli” value amounted to 80%. Further, the “herbicidal effect … Crabgrass” value in experiment [16] is 90%.
`Cc1ccc(N(C(=O)n2ncn(S(=O)(=O)C3CC3)c2=O)C(C)C)c(F)c1` [Compound 1-221]: the “weed suppression rate, Lindemia pyxidaria” value is reported as 80% in [5] and 90% in experiment [9]. In addition, the “weed suppression rate, Scirpus juncoides” value in experiment [6] and in experiment [10] was 90% each time. Besides, the “weed suppression rate, Monochoria vaginalis” value in [7] is reported as 80%; in [11], 90%. Also, the “weed suppression rate, Echinochloa crus-galli” value in [8] and in experiment [12] was 90% in each case. For the same compound, the “herbicidal effect … Amaranthus viridis” value in experiment [13] stood at 90%. In addition, the “herbicidal effect … Chenopodium album” value in experiment [14] was 80%. Moreover, the “herbicidal effect … Echinochloa crus-galli” value in [15] is given as 80%. Besides, the “herbicidal effect … Crabgrass” value in experiment [16] is recorded as 90%.
Take `CC(C)N(C(=O)n1ncn(S(=O)(=O)C2CC2)c1=O)c1ccc(C(F)(F)F)cc1Cl` [Compound 1-229]: the “weed suppression rate, Lindemia pyxidaria” value in experiment [5] and in experiment [9] was 80% each time. The “weed suppression rate, Scirpus juncoides” value in experiment [6] and in [10] was 90% each time. Further, the “weed suppression rate, Monochoria vaginalis” value in experiment [7] and in [11] was 80% in each case. For the same compound, the “weed suppression rate, Echinochloa crus-galli” value in experiment [8] and in experiment [12] was 90% throughout. Also, the “herbicidal effect … Amaranthus viridis” value in [13] came out at 90%. In [14], the “herbicidal effect … Chenopodium album” value came to 80%. Further, the “herbicidal effect … Echinochloa crus-galli” value in experiment [15] is reported as 80%. For the same compound, in experiment [16], the “herbicidal effect … Crabgrass” value was determined as 90%.
